Experimental data from a melting point compilation (Tetko et al.; mined from patent text by program, amines drawn as free bases though some values may be those of a salt).

| Compound | melting point [°C] |
| --- | --- |
| CCCCCCCCCCCOC(=O)NCCC | 45 to 45.5 |
| CCN(CC)c1cc(C)nc(Oc2c(C)cc(Cl)cc2C)c1C | 184 to 185 |
| CC(C)NC1=NS(=O)(=O)c2ccc(Oc3ccccc3)cc2N1 | 250 to 252 |
| CNC(=O)COC(=O)N1CCN(CCc2ccc3ccccc3c2)CC1 | 133 to 135 |
| ICc1ccc2c(c1)OCO2 | 51 |
| CC1(C)CC(=O)N(CCCCN2CCN(c3nc(C(C)(C)C)cs3)CC2)C(=O)C1 | 93 to 94 |
| NCCCCc1csc(-c2ccccn2)n1 | 119 to 121 |
| COc1ccc(C2=CCN(Cc3n[nH]c4c(Cl)cccc34)CC2)cc1 | 201 to 203 |
| CO[C@@H](Cc1ccc(OCCc2nc(-c3ccc(-c4ccccc4)cc3)oc2C)c2ccccc12)C(=O)O | 156 to 159 |
| COc1cc(Cl)cnc1OCC#Cc1cccc(OCC#N)n1 | 118 |
| N#CCCNC(=O)C1=CC(CF)(CF)Oc2ccc(C(F)(F)C(F)(F)C(F)(F)F)cc21 | 135 to 136 |
| Oc1c(-c2nnn[nH]2)cnc2c(Br)cccc12 | > 260 |
| S=c1sc(=Nc2ccc(Cl)cc2)n2n1CCCC2 | 96 to 97 |
| Cc1ccc(N=C(N(Cc2ccccc2)C2CCCCC2)N(Cc2ccccc2)C2CCCCC2)cc1 | 128 to 130 |
| Cn1cc(CCN2C(=O)c3ccccc3C2=O)c2cc(CC(N)=O)ccc21 | 200 to 202 |
| CCc1ccc2c(c1)OC1(O)c3cccc(N)c3C(=O)C21O (stereo not given) | 200 to 203 |
| O=C(O)c1cn2c(n1)COc1ccc([N+](=O)[O-])cc1-2 | 310 to 312 |
| COc1cc(C(=O)c2c(C)c(OCCO)c3ccccn23)ccc1[N+](=O)[O-] | 142 |
| O=C1CCC(c2c[nH]c3ccc(F)cc23)C1 (stereo not given) | 119 to 120 |
| COc1cccc(C=Cc2nc3c(s2)N(S(C)(=O)=O)CCC3)c1OC | 134 to 136 |
| CCOC(=O)c1c(CCc2ccc(OC)cc2)nc2c(c1-c1ccc(C(=O)NCc3ccccn3)cc1)C(=O)N1CCC[C@H]1C2 | > 200 |
| Cc1csc(N2CCN(Cc3ccc(C(F)(F)F)cc3)C2=O)n1 | 102 to 103 |
| NC(=O)N(O)CCNC(=O)c1cccc(Oc2cccc(C(F)(F)F)c2)c1 | 126 to 128 |
| CC(=O)OCC1CC(OC(C)=O)C(n2cc(C(Cl)=CI)c(=O)[nH]c2=O)O1 (stereo not given) | 87 to 89 |
| CC(C)(C)[Si](n1cc(Br)c2ncccc21)(C(C)(C)C)C(C)(C)C | 79 to 80 |

| Compound | melting point [°C] |
| --- | --- |
| COCc1nc(-c2ccc(-c3cnc4[nH]c(=O)n(CC5CCOCC5)c4n3)cc2)n[nH]1 | 273 to 276 |
| COc1cc(COc2cc(CC#N)n(-c3ccccc3)n2)ccc1OCc1nc(-c2ccco2)oc1C | 141 to 142 |
| N#CCc1ccc2oc([N+](=O)[O-])c(-c3ccccc3)c2c1 | 166 to 168 |
| Cc1cc(C)c2c(c1C)OC(C)(C)C2c1ccccc1 (stereo not given) | 86 to 87 |
| CCN(CC)CCN(c1cc(OC)c(C)cc1[N+](=O)[O-])S(=O)(=O)c1ccc(C)cc1 | 114 |
| CC(=O)OC(C)c1ccc(C=C(C)c2ccc3c(c2)C(C)(C)CCC3(C)C)cc1 (stereo not given) | 85 to 86 |
| CC(C)(C)C(=O)Nc1c[nH]nc1C(=O)NCCC#N | 165 to 166 |
| Cn1cnc(S(=O)(=O)NCCCCCCNS(=O)(=O)c2cn(C)cn2)c1 | 153 to 154 |
| C[C@H]1[C@H](Oc2cccc(C(F)(F)F)c2)CN1C(N)=O (relative stereo) | 107 to 108 |
| O=CNc1nc(S(=O)(=O)Cl)n[nH]1 | 194 to 196 |
| COc1cc(-c2c(C)noc2C)cc2oc(=O)c(C)c(C)c12 | 145 to 147 |
| CC(C)N(Cc1nc(-c2ncn3c2CN(C)C(=O)c2c-3ccc(F)c2Cl)no1)C(C)C | 153 to 156 |
| COc1ccc(-c2c(C(N)=O)c3n(c2Cl)CCN(C(=O)OC(C)(C)C)C3)cc1 | 188 |
| Cc1ccccc1-c1ccc(C(=O)N2Cc3ccc(C(=O)NCc4csc(-c5ccc(Cl)cc5)n4)n3Cc3ccccc32)cc1C | 61 to 64 |
| Cc1ccn2c(-c3ccnc(-c4ccc(CN5CCOCC5)cc4)c3)c(-c3cccc(C)n3)nc2c1 | 188 |
| CC1(O)c2ccccc2C(C)(O)c2ccccc21 (stereo not given) | 178 to 179 |
| CC1=NN(C)C(=O)C1(Cl)C(=O)c1ccccc1 (stereo not given) | 70.5 to 72 |
| Cc1cc(C#N)c(C)c(C(=O)Nc2ccc(C#N)cn2)n1 | 216 |
| CCCCCOC(=O)n1c(N)nc(C#N)c1C#N | 166 to 169 |
| COc1cccc(/C=C(/C(=O)O)c2cc(OC)c(OC)c(OC)c2)c1 | 68 to 70 |
| Fc1ccc(-c2[nH]nc(Br)c2-c2ccncc2)cc1F | 285 to 290 |
| Cc1cccc(N2Cc3nc(C(=O)O)nn3-c3ccccc32)c1C | 195 to 197 |
| CCOCc1nc2c(N)nc3c4c2n1[C@@H](C)CN4CCC3 | 164 to 166 |
| N#CC(Cc1c[nH]cn1)(c1ccccc1)c1ccc(Br)cc1 (stereo not given) | 121 to 124 |
| O=c1c(CO)cc(-c2ccc3c(c2)CCO3)nn1CC1CC1 | 115 to 117 |

| Compound | melting point [°C] |
| --- | --- |
| NC(=O)CN1C(=O)C[C@@H]2CCCCCC[C@@H]21 (relative stereo) | 110 to 112 |
| Cc1nc(N)nc(N)c1N1CCN(c2ccc(C(F)(F)F)cc2)CC1 | 255 to 258 |
| C=CCn1c(=O)c(C(=O)O)c(NC(=O)CCl)c2cccnc21 | 145 to 148 |
| O=C(OC(=O)N(c1ccccc1)c1ccccc1)N(c1ccccc1)c1ccccc1 | 159 to 162 |
| CCOC(=O)c1c(C)c(C#N)c(N)c(C#N)c1C | 206 |
| CCOC(=O)N1CCN(c2nc(N(C(C)=O)C3CC3)ccc2N)CC1 | 149 to 150 |
| COc1cccc(CNC(=O)c2nc3scc(COc4ccc(CC(=O)O)cc4)c3c(=O)[nH]2)c1 | 228 to 230 |
| Cc1noc(C)c1S(=O)(=O)Nc1cc(-c2ncc(C(F)(F)F)cc2Cl)ccc1Cl | 161 to 162 |
| COc1ccc2[nH]cc(CCC(=O)Nc3ccccc3C(=O)O)c2c1 | 168 to 170 |
| CC12CCC(Oc3c(F)c(F)c(C(F)(F)F)c(F)c3F)=CC1=CCC1C2CCC2(C)C(OS(=O)(=O)C(F)(F)F)=CCC12 (stereo not given) | 106 to 107 |
| CCC(=O)Oc1ccc(C(=O)CC)cc1F | 104 to 106 |
| O/C(=C\c1nc2ccccc2c2nccn12)c1cccs1 | 128 |
| CCOC(=O)c1ncn2c(-c3cccc(C(F)(F)F)c3)ccnc12 | 232 to 234 |
| COC(=O)CCSCC(=O)c1ccc2[nH]c(=O)[nH]c2c1 | 185 to 187 |
| Cn1nc(-c2nc(O)c(Cl)cc2F)c(Cl)c1OC(F)F | 126 to 128 |
| O=S(=O)(c1ccc(Cl)cc1)C(Cc1ccccn1)c1cc(F)ccc1F (stereo not given) | 105 to 107 |
| Cc1nc[nH]c1CSCCNC1=NC(=O)C(Cc2ccccc2)N1 (stereo not given) | 104 to 107 |
| Cn1cc(C(=O)NCc2ccc(Cl)cc2)c(=O)c2cc(CN3CCOCC3)cc(C#CCN3CCC(O)C3)c21 (stereo not given) | 144 to 146 |
| O=C(Oc1ccccc1)c1cc2ccc3c4cc(F)ccc4[nH]c3c2cc1O | 289 to 290 |
| Cc1cccc(C#CC2=CC(=NO)CCC2)n1 | 166 to 168 |
| Cc1cc(NC2=NCCN2C(=O)c2ccccc2)n(C)n1 | 147 to 149 |
| CCOC(=O)[C@H](Cc1ccc(Nc2nccc3ccncc23)cc1)NC1=CC(=O)C12CCOCC2 | 112 |
| COc1ccc(-c2cc(C(=O)O)c(=O)n(CC3CC3)n2)cc1 | 154 to 155 |
| N=C(Nc1ccc(CCCC(=O)Nc2ccccc2)cc1)N1CCCC1 | 164 to 165 |
| BrCCCCOc1ccc2c(c1)OCO2 | 52 to 54 |

| Compound | melting point [°C] |
| --- | --- |
| Cc1cc(Nc2ccccn2)c(S(C)(=O)=O)cc1C(=O)N=C(N)N | 225 to 226 |
| COc1ccc(C2=NN(C3CCN(S(=O)(=O)c4ccccc4C#N)CC3)C(=O)CC2)cc1OC | 158 to 160 |
| COc1c2occc2cc2cc(C(=O)O)c(=O)oc12 | 227 to 228 |
| O=[N+]([O-])c1cc(O)ccc1/C=C/c1ccc(O)cc1 | 237 to 240 |
| CC(C)c1cccc(C(C)C)c1NC(=O)CNC(c1ccccc1)c1ccccc1Cl (stereo not given) | 119 to 121 |
| N=C(N)CSc1nnc(S)s1 | 184 to 187 |
| CC(C)(C)NC(=O)c1cc(C(C)(C)C)c(O)c(C(C)(C)C)c1 | 207 to 208 |
| O=C(O)c1c(-c2ccccc2)oc2ccccc2c1=O | 298 to 300 |
| CCN1CC(=O)N(C)c2cc(Nc3ncc(Cl)c(Nc4ccc(OC)c(CNCCO)c4)n3)c(OC)cc2C1 | 65 to 70 |
| CC(=O)Oc1cccc(C(C)=NOCCOc2ccc(CC3SC(=O)NC3=O)cc2)c1 (stereo not given) | 30 to 50 |
| O=C(O)C=Cc1cc(=O)c(OCc2ccccc2)c[nH]1 | 236 |
| CN(CC(=O)c1cccn1Cc1ccc(Cl)cc1[N+](=O)[O-])Cc1ccccc1 | 90 to 93 |
| CCOC(=O)COc1cc(Cl)c(C(=O)c2ccc([N+](=O)[O-])cc2)c(Cl)c1 | 96 to 98 |
| CCOC(=O)c1ncn(-c2ccn(C)n2)c1N | 168 to 170 |
| COc1ccccc1N1CCN(C2(C(=O)c3ccc(Cl)cc3)CC2)CC1 | 103 to 104 |
| CC1(C)CC(=O)C(C(=S)Nc2ccc(Cl)c(C(F)(F)F)c2)C(=O)C1 | 101 to 102 |
| CCN(CC)c1ccc(/C=C/c2cc(/C=C/c3ccc4cc[nH]c4c3)[nH]n2)c(OC)c1 | 104 to 108 |
| CCOC(=O)c1c(S(N)=O)c2ccccc2n1CC (stereo not given) | 78 to 80 |
| COc1ccccc1N1CCN(CCn2c(=O)[nH]c3ccc(O)c(O)c3c2=O)CC1 | 223 to 227 |
| COC(OC)C(=O)NC(Cc1ccccc1)c1ccccc1 (stereo not given) | 108 to 110 |
| CCOC(=O)Cn1c(=S)c2ccccc2n(Cc2ccc(Cl)cc2Cl)c1=O | 138 to 139 |
| CCCn1nc(-c2ccc(O)c(Cl)c2)c2cccc(Cl)c21 | 145 to 146 |
| CN1CCN(C(c2ccc(Cl)cc2)c2ccccc2C(=O)O)CC1 (stereo not given) | 144 to 150 |
| Nc1c(C(=O)c2ccccc2O)oc2ccc(Cl)cc12 | 208 to 210 |
| COC(=O)[C@@H](Cc1ccccc1)NC(=O)OCc1cc2cc(-c3ccccc3)ccc2[nH]1 | 142 to 143 |
